This note sets out measurements from US20220249710A1, “BIOREDUCTIVELY-ACTIVATED COMPOUNDS, THEIR PRODRUGS, RADIOPHARMACEUTICALS, THE COMPOSITIONS, AND THEIR APPLICATIONS IN MULTIMODAL THERANOSTIC MANAGEMENT OF HYPOXIA DISEASES INCLUDING CANCER” (The Governors of the University of Alberta, priority 2017, published 2022).

The series relates to FaDu tumor. Kind of series: In vivo radiosensitization therapy of FaDu tumor-bearing NuNu mice. To be noted: bi-flank FaDu tumor-bearing NuNu mice, single chemical dose (20% of MTD) followed by single 10 Gy external beam radiotherapy. The text has this: In very brief, the evaluation of radiosensitization potential of IAZA using a single chemical dose (20% of the maximum tolerated dose; MTD) and a single radiation dose (10 Gy) was done in ‘bi-flank FaDu tumor-bearing NuNu mice was done. Benefits of IAZA-bestowed radiosensitization therapy effects were compared with the conventional radiotherapy alone (a single 10 Gy dose).
FIGS. 28 and 29 depict IN VIVO RADIOSENSITIZATION THERAPY OF FaDu TUMOR BEARING NU-NU MICE USING A SINGLE CHEMICAL DOSE OF IAZA (20% of MTD) AND 10 Gy RADIATION DOSE (Green stain indicates the hypoxic region in tumor)

[1] abbreviates: compared with radiotherapy alone.

On to `O=[N+]([O-])c1nccn1[C@@H]1O[C@H](C[125I])[C@@H](O)[C@@H]1O` [IAZA], for which the morbidity entry is recorded as “no morbidity”. Further, under setting [1], the “hypoxic content of the tumor” value is recorded as “Reduction in hypoxic content of the tumor” and the tumor size result was “tumor size reduction”.
